What was measured:
[1] = system: (Pro-Hyp-Gly)10; experiment: DSC of triple-helical peptide in presence of Phe; conditions: PBS pH 7, peptide c=1mg/ml, molar ratio peptide:Phe = 1:200
[2] = system: T4Y; experiment: Effect of isolated Phe on self-association by turbidity; conditions: T4Y c=7mg/ml, 44°C, PBS, 1peptide:60F
[3] = system: FT4Y; experiment: as above; conditions: FT4Y c=3mg/ml, 46°C, data not shown
[4] = biological target: T4, type IV collagen model peptide (POG)3QOGLOGLOG(POG)4; experiment: critical concentration
[5] = biological target: T4, type IV collagen model peptide (POG)3QOGLOGLOG(POG)4; experiment: dynamic light scattering

Molecule	effect on thermal stability of (Pro-Hyp-Gly)10 by DSC [1]	effect on self-association of T4Y [2]	effect on self-association of FT4Y [3]	critical concentration [4]	stoichiometry N [5]
N[C@@H](Cc1ccccc1)C(=O)O [Phe, L-phenylalanine]	slight destabilization	substantial delay in self-association	substantial delay in self-association		
T4, type IV collagen model peptide (POG)3QOGLOGLOG(POG)4				5.9 mg/mL	3

— publication PMC2784932 (Biochemistry, 2009)
